ChEMBL document CHEMBL4359906, “Design and synthesis of new N-terminal fatty acid modified-antimicrobial peptide analogues with potent in vitro biological activity” (Eur J Med Chem, 2019)
In brackets after ≈: the same amount, converted by molar mass. Activity calls are given as the source filed them. The calls are words filed in the database; no cut-off is given here.

How the values were obtained:
[1] = Selectivity index, ratio of MHC10 for human RBC to geometric mean of peptide MIC for gram positive bacteria; type: toxicity; conditions: human red blood cells, read-out: Selectivity Index
Escherichia coli [2] = experiment: Induction of membrane disruption in Escherichia coli ATCC 25922 assessed as fracture in membrane at 4 times of MIC after 2 hrs by SEM analysis; type: functional, organism-based
Staphylococcus aureus [3] = experiment: Ratio of antibacterial activity against Staphylococcus aureus ATCC 25923 in presence of MgCl2 to antibacterial activity against Staphylococcus aureus ATCC 25923; type: functional
Escherichia coli [4] = experiment: Ratio of antibacterial activity against Escherichia coli ATCC 25922 in presence of KCl to antibacterial activity against Escherichia coli ATCC 25922; type: functional
Klebsiella pneumoniae [5] = experiment: Potentiation of polymyxin B-induced antibacterial activity against Klebsiella pneumoniae ATCC 700603 assessed as FICI after 18 hrs by checker board assay; type: functional
Escherichia coli [6] = experiment: Disruption of membrane integrity in Escherichia coli ATCC 25922 assessed as membrane damage by measuring PI fluorescence incubated for 1 hr by PI dye based flow cytometric analysis; type: functional, organism-based
Escherichia coli [7] = experiment: Antibacterial activity against Escherichia coli ATCC 43837 after 18 hrs by CLSI based broth microdilution method; type: functional; conditions: ATCC 43837, 18 h
Escherichia coli [8] = experiment: Induction of membrane disruption in Escherichia coli ATCC 25922 assessed as rough membrane surface at 4 times of MIC after 2 hrs by SEM analysis; type: functional, organism-based
Escherichia coli [9] = experiment: Antibacterial activity against Escherichia coli ATCC 25922 after 18 hrs by CLSI based broth microdilution method; type: functional; conditions: ATCC 25922, 18 h
Bacillus subtilis = experiment: Antibacterial activity against Bacillus subtilis ATCC 23857 after 18 hrs by CLSI based broth microdilution method; type: functional; conditions: ATCC 23857, 18 h
Escherichia coli [10] = experiment: Disruption of membrane integrity in Escherichia coli ATCC 25922 assessed as membrane damage by measuring PI fluorescence at 4 times of MIC incubated for 1 hr by PI dye based flow cytometric analysis (reference value: 1.35%); type: functional
Escherichia coli [11] = experiment: Induction of inner membrane permeabilization in Escherichia coli ATCC 43837 assessed as increase in ONPG release at 4 times of MIC by ONPG dye based assay; type: organism-based
Escherichia coli [12] = experiment: Ratio of antibacterial activity against Escherichia coli ATCC 25922 in presence of FeCl3 to antibacterial activity against Escherichia coli ATCC 25922; type: functional
Escherichia coli [13] = experiment: Ratio of antibacterial activity against Escherichia coli ATCC 25922 in presence of MgCl2 to antibacterial activity against Escherichia coli ATCC 25922; type: functional
Staphylococcus aureus [14] = experiment: Ratio of antibacterial activity against Staphylococcus aureus ATCC 25923 in presence of KCl to antibacterial activity against Staphylococcus aureus ATCC 25923; type: functional
Escherichia coli [15] = experiment: Ratio of antibacterial activity against Escherichia coli ATCC 25922 in presence of NaCl to antibacterial activity against Escherichia coli ATCC 25922; type: functional
Escherichia coli [16] = experiment: Antibacterial activity against Escherichia coli ATCC 25922 at 0.5 times MIC incubated for 18 hrs measured for 15 passages by CLSI based broth microdilution method; type: functional, organism-based
Escherichia coli [17] = experiment: Induction of membrane disruption in Escherichia coli ATCC 25922 assessed as corrugated membrane surface at 4 times of MIC after 2 hrs by SEM analysis; type: functional, organism-based
Escherichia coli [18] = experiment: Disruption of membrane integrity in Escherichia coli ATCC 25922 assessed as membrane damage by measuring PI fluorescence at 2 times of MIC incubated for 1 hr by PI dye based flow cytometric analysis (reference value: 1.35%); type: functional
Escherichia coli [19] = experiment: Ratio of MIC for Escherichia coli ATCC 25922 preincubated for 1 hr in presence of 10% mouse serum and measured after 18 hrs to MIC for antibacterial activity against Escherichia coli ATCC 25922 after 18 hrs; type: functional
DNA = experiment: Binding affinity to Escherichia coli ATCC 25922 genomic DNA after 30 mins by agarose gel electrophoresis; type: nucleic-acid assay
Escherichia coli [20] = experiment: Ratio of MIC for Escherichia coli ATCC 25922 preincubated for 6 hrs in presence of 10% mouse serum and measured after 18 hrs to MIC for antibacterial activity against Escherichia coli ATCC 25922 after 18 hrs; type: functional
Escherichia coli [21] = experiment: Induction of membrane disruption in Escherichia coli ATCC 25922 assessed as degeneration in membrane at 4 times of MIC after 2 hrs by SEM analysis; type: functional, organism-based
Pseudomonas aeruginosa [22] = experiment: Potentiation of rifampicin-induced antibacterial activity against Pseudomonas aeruginosa ATCC 27853 assessed as FICI after 18 hrs by checker board assay; type: functional
Escherichia coli [23] = experiment: Antibiofilm activity against Escherichia coli ATCC 25922 after 24 hrs by crystal violet staining based assay; type: functional, organism-based
Pseudomonas aeruginosa [24] = experiment: Antibacterial activity against Pseudomonas aeruginosa ATCC 27853 after 18 hrs by CLSI based broth microdilution method; type: functional; conditions: ATCC 27853, 18 h
Escherichia coli [25] = experiment: Antibiofilm activity against Escherichia coli ATCC 25922 at 2 times MIC after 24 hrs by crystal violet staining based assay; type: functional, organism-based
Escherichia coli [26] = experiment: Potentiation of rifampicin-induced antibacterial activity against Escherichia coli ATCC 25922 assessed as FICI after 18 hrs by checker board assay; type: functional
Pseudomonas aeruginosa [27] = experiment: Antibiofilm activity against Pseudomonas aeruginosa ATCC 27853 at 0.25 to 2 times of MIC after 24 hrs by crystal violet staining based assay; type: functional, organism-based
Escherichia coli [28] = experiment: Induction of inner membrane permeabilization in Escherichia coli ATCC 43837 assessed as increase in ONPG release at 1 to 2 times of MIC by ONPG dye based assay; type: organism-based
Staphylococcus aureus [29] = experiment: Ratio of antibacterial activity against Staphylococcus aureus ATCC 25923 in presence of FeCl3 to antibacterial activity against Staphylococcus aureus ATCC 25923; type: functional
Pseudomonas aeruginosa [30] = experiment: Potentiation of polymyxin B-induced antibacterial activity against Pseudomonas aeruginosa ATCC 27853 assessed as FICI after 18 hrs by checker board assay; type: functional
Staphylococcus aureus [31] = experiment: Antibacterial activity against Staphylococcus aureus ATCC 25923 after 18 hrs by CLSI based broth microdilution method; type: functional; conditions: ATCC 25923, 18 h
Staphylococcus aureus [32] = experiment: Antibiofilm activity against Staphylococcus aureus ATCC 25923 after 24 hrs by crystal violet staining based assay; type: functional, organism-based
Escherichia coli [33] = experiment: Induction of ROS generation in Escherichia coli ATCC 25922; type: functional, organism-based
Escherichia coli [34] = experiment: Potentiation of polymyxin B-induced antibacterial activity against Escherichia coli ATCC 25922 assessed as FICI after 18 hrs by checker board assay; type: functional
Klebsiella pneumoniae [35] = experiment: Antibacterial activity against Klebsiella pneumoniae ATCC 700603 after 18 hrs by CLSI based broth microdilution method; type: functional; conditions: Klebsiella pneumoniae, 700603, 18 h
[36] = Selectivity index, ratio of MHC10 for human RBC to geometric mean of peptide MIC for gram negative bacteria; type: toxicity; conditions: human red blood cells, read-out: Selectivity Index
Pseudomonas aeruginosa [37] = experiment: Antibiofilm activity against Pseudomonas aeruginosa ATCC 27853 after 24 hrs by crystal violet staining based assay; type: functional, organism-based
Escherichia coli [38] = experiment: Antimicrobial activity against Escherichia coli ATCC 25922 at 1 mM preincubated for 6 hrs in presence of 2000 ug/ml trypsin and measured after 18 hrs by microplate reader analysis; type: functional, organism-based

With CCCCCCCC(=O)NC(Cc1cn(CCCC[C@H](NC(C)=O)C(=O)NCC(=O)N[C@@H](CC(C)C)C(=O)N[C@@H](CC(C)C)C(=O)N[C@H](CCCCN)C(=O)N[C@@H](CCCNC(=N)N)C(=O)N[C@H](C(=O)N[C@H](CCCCN)C(=O)N[C@H](C(=O)N[C@@H](CC(C)C)C(=O)N[C@@H](CC(C)C)C(N)=O)[C@@H](C)O)[C@@H](C)CC)nn1)C(=O)NCC(=O)N[C@@H](CC(C)C)C(=O)N[C@@H](CC(C)C)C(=O)N[C@H](CCCCN)C(=O)N[C@@H](CCCNC(=N)N)C(=O)N[C@H](C(=O)N[C@H](CCCCN)C(=O)N[C@H](C(=O)N[C@@H](CC(C)C)C(=O)N[C@@H](CC(C)C)C(N)=O)[C@@H](C)O)[C@@H](C)CC (stereo not given in full) the selectivity ratio [1] was 11.3, the Activity (Escherichia coli [2]) was “Active” and the Ratio (Staphylococcus aureus [3]) was 2 - 4. For the same molecule, the Ratio (Escherichia coli [4]) was 2 - 4, the “fractional inhibitory concentration index (FICI)” value (Klebsiella pneumoniae [5]) was 0.3125 and the Activity (Escherichia coli [6]) was “Dose-dependent effect”. For the same molecule, the MIC (Escherichia coli [7]) was 8 µM (≈ 21.8 µg/mL), the Activity (Escherichia coli [8]) was “Active” and the MIC (Escherichia coli [9]) was 4 µM (≈ 10.9 µg/mL). For the same molecule, the MIC (Bacillus subtilis) was 2 µM (≈ 5.45 µg/mL), the Activity (Escherichia coli [10]) was 32.1% and the Activity (Escherichia coli [11]) was “Active”. For the same molecule, the Ratio (Escherichia coli [12]) was 2 - 4, the Ratio (Escherichia coli [13]) was 2 - 4 and the Ratio (Staphylococcus aureus [14]) was 2 - 4. The Ratio (Escherichia coli [15]) was 2 - 4, the Activity (Escherichia coli [16]) was “Active” and the Activity (Escherichia coli [17]) was “Active”. The Activity (Escherichia coli [18]) was 13.4%, the Ratio (Escherichia coli [19]) was 2 and the Activity (DNA) was “Dose-dependent effect”. The Ratio (Escherichia coli [20]) was 4, the Activity (Escherichia coli [21]) was “Active” and the “fractional inhibitory concentration index (FICI)” value (Pseudomonas aeruginosa [22]) was 0.5625. The inhibition (Escherichia coli [23]) was “Dose-dependent effect”, the MIC (Pseudomonas aeruginosa [24]) was 8 µM (≈ 21.8 µg/mL) and the inhibition (Escherichia coli [25]) was “Active”. For the same molecule, the “fractional inhibitory concentration index (FICI)” value (Escherichia coli [26]) was 0.5625, the inhibition (Pseudomonas aeruginosa [27]) was “Active” and the Activity (Escherichia coli [28]) was “Active”. The Ratio (Staphylococcus aureus [29]) was 2 - 4, the “fractional inhibitory concentration index (FICI)” value (Pseudomonas aeruginosa [30]) was 0.5625 and the MIC (Staphylococcus aureus [31]) was 16 µM (≈ 43.6 µg/mL). The inhibition (Staphylococcus aureus [32]) was “Dose-dependent effect”, the Activity (Escherichia coli [33]) was “inactive” and the “fractional inhibitory concentration index (FICI)” value (Escherichia coli [34]) was 0.3125. The MIC (Klebsiella pneumoniae [35]) was 16 µM (≈ 43.6 µg/mL), the selectivity ratio [36] was 14.2 and the inhibition (Pseudomonas aeruginosa [37]) was “Dose-dependent effect”. The Activity (Escherichia coli [38]) was “Active”.

For CCCCCCCCCCCC(=O)NC(Cc1cn(CCCC[C@H](NC(C)=O)C(=O)NCC(=O)N[C@@H](CC(C)C)C(=O)N[C@@H](CC(C)C)C(=O)N[C@H](CCCCN)C(=O)N[C@@H](CCCNC(=N)N)C(=O)N[C@H](C(=O)N[C@H](CCCCN)C(=O)N[C@H](C(=O)N[C@@H](CC(C)C)C(=O)N[C@@H](CC(C)C)C(N)=O)[C@@H](C)O)[C@@H](C)CC)nn1)C(=O)NCC(=O)N[C@@H](CC(C)C)C(=O)N[C@@H](CC(C)C)C(=O)N[C@H](CCCCN)C(=O)N[C@@H](CCCNC(=N)N)C(=O)N[C@H](C(=O)N[C@H](CCCCN)C(=O)N[C@H](C(=O)N[C@@H](CC(C)C)C(=O)N[C@@H](CC(C)C)C(N)=O)[C@@H](C)O)[C@@H](C)CC (stereo not given in full), the selectivity ratio [1] was 1.85, the Activity (Escherichia coli [2]) was “Active” and the Ratio (Staphylococcus aureus [3]) was 2 - 4. The Ratio (Escherichia coli [4]) was 2 - 4, the “fractional inhibitory concentration index (FICI)” value (Klebsiella pneumoniae [5]) was 0.3125 and the Activity (Escherichia coli [6]) was “Dose-dependent effect”. The MIC (Escherichia coli [7]) was 8 µM (≈ 22.2 µg/mL), the Activity (Escherichia coli [8]) was “Active” and the MIC (Escherichia coli [9]) was 8 µM (≈ 22.2 µg/mL). The MIC (Bacillus subtilis) was 2 µM (≈ 5.56 µg/mL), the Activity (Escherichia coli [10]) was 88.9% and the Activity (Escherichia coli [11]) was “Active”. The Ratio (Escherichia coli [12]) was 2 - 4, the Ratio (Escherichia coli [13]) was 2 - 4 and the Ratio (Staphylococcus aureus [14]) was 2 - 4. The Ratio (Escherichia coli [15]) was 2 - 4, the Activity (Escherichia coli [16]) was “Active” and the Activity (Escherichia coli [17]) was “Active”. For the same molecule, the Activity (Escherichia coli [18]) was 60.7%, the Ratio (Escherichia coli [19]) was 2 and the Activity (DNA) was “Dose-dependent effect”. The Ratio (Escherichia coli [20]) was 4, the Activity (Escherichia coli [21]) was “Active” and the “fractional inhibitory concentration index (FICI)” value (Pseudomonas aeruginosa [22]) was 0.3125. The inhibition (Escherichia coli [23]) was “Dose-dependent effect”, the MIC (Pseudomonas aeruginosa [24]) was 8 µM (≈ 22.2 µg/mL) and the inhibition (Escherichia coli [25]) was “Active”. The “fractional inhibitory concentration index (FICI)” value (Escherichia coli [26]) was 0.5625, the inhibition (Pseudomonas aeruginosa [27]) was “Active” and the Activity (Escherichia coli [28]) was “Active”. For the same molecule, the Ratio (Staphylococcus aureus [29]) was 2 - 4, the “fractional inhibitory concentration index (FICI)” value (Pseudomonas aeruginosa [30]) was 0.1875 and the MIC (Staphylococcus aureus [31]) was 8 µM (≈ 22.2 µg/mL). For the same molecule, the inhibition (Staphylococcus aureus [32]) was “Dose-dependent effect”, the Activity (Escherichia coli [33]) was “inactive” and the “fractional inhibitory concentration index (FICI)” value (Escherichia coli [34]) was 0.3125. For the same molecule, the MIC (Klebsiella pneumoniae [35]) was 8 µM (≈ 22.2 µg/mL), the selectivity ratio [36] was 2 and the inhibition (Pseudomonas aeruginosa [37]) was “Dose-dependent effect”. For the same molecule, the Activity (Escherichia coli [38]) was “Active”.
